Assay results reported in patent US20260232752A1, “COMBINATION THERAPY METHODS, COMPOSITIONS AND KITS” (Accure Therapeutics, S.L., priority 2019, published 2026).

System: experimental autoimmune encephalomyelitis (EAE) mouse model
Test: Study EAE-C05: clinical score in EAE mouse model with active comparators
Type: in vivo
Conditions: 100 mg/kg daily, after 5 days of treatment
Procedure: A second experiment (Study EAE-C05) was then performed using the same mouse model.
Study EAE-C05: In addition to two dose levels of BN201 and a placebo-treated group (pathological control group), the study design introduced two active comparators, dimethyl fumarate (DMF) and fingolimod (FTY720), and a sham group (group in which animals were manipulated as the pathological group but without MOG injection). All groups were administered daily. • sham control non-diseased placebo-treated animals (healthy control group); • EAE-affected placebo-treated animals (pathological control group); • EAE-affected animals treated orally with 15 mg/kg of DMF; • EAE-affected animals treated with 2 mg/kg of FTY720; • EAE-affected animals treated with BN201 at 50 or 100 mg/kg.
Clinical scores were assigned to assess disease severity using the following scale: 0=normal; 0.5=Partial tail paralysis; 1=Complete tail paralysis; 1.5=Tail paralysis and loss of righting reflex; 2=Partial hind limb paralysis/paralysis of one limb; 2.5=One limb paralysis and partial loss of activity of one other limb; 3=Bilateral hind limb paralysis; 4=Moribund; 5=exitus.
Therapeutic treatment was initiated on day 12 or 13, once each mouse started showing complete tail paralysis (Score 1).

**Q.** With `CC(C)CN(CC(=O)N(CCCN1CCCC1=O)CC(N)=O)C(=O)CNCCc1ccccc1F` [BN201, [N-(2-(2′-Fluorophenyl)ethyl)glycyl]-[N-(2-methylpropyl)glycyl]-N-[3-(2′-oxopyrrolidinyl)-propyl]glycinamide] as the compound, how does the “clinical score compared to pathological control group” value read?
**A.** Its value is “significantly lower”.
